Positions of bridges follow the written chain, without caps; N, C: chain ends. Residues, ends and D or L forms follow the SMILES beside them. No end group written: not given here.
Target: BLyS (Homo sapiens, UniProt Q9Y275)
Assay: Chromatographic screening of immobilized BLyS binding polypeptides (affinity media)
Conditions: peptide immobilized on SEPHAROSE 4 Fast Flow
Protocol: A reversed phase analytical assay was used in the assessment of the chromatographic performance of the six affinity media.
All columns were tested at 200 μl/min (170 cm/hr) using a Watson/Marlow 101 ru peristaltic pump. This setup allowed free use of numerous wash, protein and elution conditions. Detection was made using a Waters 2487 UV/VIS detector at 214 nm and 280 nm connected to a Waters Millennium workstation.
The columns were then tested with an array of possible elution conditions and monitored at 214 nm and 280 nm for release of BLyS. Fractions indicating possible BLyS elution based on UV absorbance were collected and analyzed by reversed phase chromatography for confirmation.

Sequence of BLyS (Q9Y275 134-285 limits assumed): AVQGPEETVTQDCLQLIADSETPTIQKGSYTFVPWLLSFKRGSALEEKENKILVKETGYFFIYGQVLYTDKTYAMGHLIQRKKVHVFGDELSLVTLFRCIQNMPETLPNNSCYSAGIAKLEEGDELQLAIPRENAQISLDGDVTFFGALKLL

Row | Compound | release of BLyS from affinity media (elution condition)
1 | CC(=O)N[C@@H](C)C(=O)NCC(=O)N[C@@H](CCCCN)C(=O)N[C@@H](CCC(=O)O)C(=O)N1CCC[C@H]1C(=O)N[C@H]1CSSC[C@@H](C(=O)N[C@@H](C)C(=O)N[C@H](C(=O)N[C@@H](CO)C(=O)NCC(=O)N2CCC[C@H]2C(=O)NCC(=O)N2CCC[C@H]2C(=O)N[C@@H](CCC(=O)O)C(=O)NCC(=O)NCC(=O)NCC(=O)N[C@@H](CCCCN)C(=O)O)C(C)C)NC(=O)[C@H](CCC(=O)O)NC(=O)[C@H](Cc2c[nH]c3ccccc23)NC(=O)[C@H](Cc2ccc(O)cc2)NC(=O)[C@H](Cc2ccccc2)NC(=O)[C@H](Cc2ccc(O)cc2)NC1=O [DX212] (Ac-AGKEPCYFYWECAVSGPGPEGGGK-OH; disulfide 6-12; C-terminus assumed) | released BLyS with good recoveries on elution with 50% ethylene glycol, pH 4
2 | CC(=O)N[C@@H](C)C(=O)NCC(=O)N[C@H](C(=O)N1CCC[C@H]1C(=O)N[C@@H](Cc1ccccc1)C(=O)N[C@H]1CSSC[C@@H](C(=O)N[C@@H](Cc2ccccc2)C(=O)N[C@@H](CCC(=O)O)C(=O)N[C@@H](C)C(=O)NCC(=O)N2CCC[C@H]2C(=O)NCC(=O)N2CCC[C@H]2C(=O)N[C@@H](CCC(=O)O)C(=O)NCC(=O)NCC(=O)NCC(=O)N[C@@H](CCCCN)C(=O)O)NC(=O)[C@H](Cc2c[nH]cn2)NC(=O)[C@H](CCCCN)NC(=O)[C@H]([C@@H](C)O)NC(=O)[C@H](CC(C)C)NC(=O)[C@H](CC(C)C)NC(=O)[C@H](CC(=O)O)NC1=O)C(C)C [DX214] (Ac-AGVPFCDLLTKHCFEAGPGPEGGGK-OH; disulfide 6-13; C-terminus assumed) | would only release BLyS in the presence of pH 2 buffer
3 | CSCC[C@@H]1NC(=O)[C@H](Cc2c[nH]cn2)NC(=O)[C@@H](NC(=O)[C@H](CC(C)C)NC(=O)[C@H](CCCNC(=N)N)NC(=O)[C@H](CO)NC(=O)[C@H](CO)NC(=O)CNC(C)=O)CSSC[C@@H](C(=O)N[C@H](C(=O)N[C@@H](Cc2c[nH]cn2)C(=O)N[C@@H](Cc2ccccc2)C(=O)N[C@@H](C)C(=O)N2CCC[C@H]2C(=O)N2CCC[C@H]2C(=O)NCC(=O)N2CCC[C@H]2C(=O)N[C@@H](CCC(=O)O)C(=O)NCC(=O)NCC(=O)NCC(=O)N[C@@H](CCCCN)C(=O)O)C(C)C)NC(=O)[C@H](C(C)C)NC(=O)[C@H](Cc2c[nH]cn2)NC(=O)[C@H]([C@@H](C)O)NC(=O)[C@H](CC(C)C)NC(=O)[C@H](CCC(=O)O)NC(=O)[C@H](CC(=O)O)NC1=O [DX216] (Ac-GSSRLCHMDELTHVCVHFAPPGPEGGGK-OH; disulfide 6-15; C-terminus assumed) | would only release BLyS in the presence of pH 2 buffer
4 | CSCC[C@H](NC(=O)[C@@H]1CSSC[C@H](NC(=O)[C@H](CC(N)=O)NC(=O)CNC(=O)CNC(=O)[C@H](CC(=O)O)NC(=O)CNC(C)=O)C(=O)N[C@@H](Cc2ccc(O)cc2)C(=O)N[C@@H]([C@@H](C)O)C(=O)N[C@@H](CC(=O)O)C(=O)N[C@@H](CO)C(=O)N[C@@H](CC(C)C)C(=O)N[C@@H]([C@@H](C)O)C(=O)N[C@@H](CCCCN)C(=O)N[C@@H](CC(C)C)C(=O)N[C@@H](Cc2c[nH]cn2)C(=O)N[C@@H](Cc2ccccc2)C(=O)N1)C(=O)NCC(=O)N[C@@H](CC(=O)O)C(=O)N[C@@H](CCC(=O)O)C(=O)N1CCC[C@H]1C(=O)NCC(=O)N1CCC[C@H]1C(=O)N[C@@H](CCC(=O)O)C(=O)NCC(=O)NCC(=O)NCC(=O)N[C@@H](CCCCN)C(=O)O [DX217] (Ac-GDGGNCYTDSLTKLHFCMGDEPGPEGGGK-OH; disulfide 6-17; C-terminus assumed) | would only release BLyS in the presence of pH 2 buffer
5 | Ac-GYDVLTKLYFVPGGPGPEGGGK [DX219] | would only release BLyS in the presence of pH 2 buffer
6 | Ac-WTDSLTGLWFPDGGPGPEGGGK [DX221] | would only release BLyS in the presence of pH 2 buffer
